Tests used:
[1] = Multiple oral dose (every 6 hours) pharmacokinetics of atazanavir; format: in vivo, Wistar rats; conditions: multiple oral dose 10 mg/kg atazanavir every 6 hours, steady state, rat plasma
Description: All animal work was conducted in accordance with the Animals (Scientific Procedures) Act 1986 (ASPA) implemented by the UK Home Office. The rodents were housed with environmental enrichment and a 12 h light/dark cycle at 21° C.±2° C. Free access to food and water was provided at all times. Following 7-days acclimatisation, adult male Wistar rats (280-330 g) were dosed with 10 mg Kg^−1 atazanavir at 5 μCi/mg, either as a conventional [^3H]-atazanavir preparation (<5% DMSO) or as a [^3H]^ATVSDNF68/T20 nanodispersion using a 7-cm curved gavage needle. Subsequent doses were administered at 6 hour intervals. Subsequently, trough blood samples were collected (0.15 ml) every 12 h post-dosing from the lateral tail vein. Steady state PK blood samples were taken at 60, 61, 62, 62.5, 63, 64 and 66 h post first dose. At 66 h, the rats were sacrificed using cardiac puncture under terminal anaesthesia (isoflurane/oxygen), followed by immediate exsanguination of blood from the heart. Subsequently, an overdose of sodium pentobarbitone was administered using the same in situ puncture needle. Blood samples were collected in heparinised Eppendorf tubes and centrifuged at 3,000 rpm for 5 min. The plasma layer was collected and stored at −20° C. prior to analysis.

[2] = Single oral dose pharmacokinetics of atazanavir; set-up: species or system Wistar rats; conditions: male, Wistar, rat, in vivo, 10 mg/kg
Description: All animal work was conducted in accordance with the Animals (Scientific Procedures) Act 1986 (ASPA) implemented by the UK Home Office. The rodents were housed with environmental enrichment and a 12 h light/dark cycle at 21° C.±2° C. Free access to food and water was provided at all times during acclimatisation. Following 7-days acclimatisation, adult male Wistar rats (280-330 g) were fasted overnight and dosed with 10 mg Kg^−1 atazanavir at 10 μCi/mg, either as a conventional [^3H]-atazanavir preparation (<5% DMSO) or as a [^3H]-^ATVSDNF68/T20 nanodispersion using a 7-cm curved gavage needle. Subsequently, blood samples were collected (0.2 ml) at 1, 2, 2.5, 3, 6 and 12 h post-dosing from the tail vein. At 24 h, the rats were sacrificed using cardiac puncture under terminal anaesthesia (isoflurane/oxygen), followed by immediate exsanguination of blood from the heart. Subsequently, an overdose of sodium pentobarbitone was administered using the same in situ puncture needle. Blood samples were collected in heparinised Eppendorf tubes and centrifuged at 3,000 rpm for 5 min. The plasma layer was collected and stored at −20° C. prior to analysis.

AUC(0-t) ([1]; male, Wistar): 15500 ng·h/mL | Cmax ([1]; male, Wistar): 3090 ng/mL | Tmax ([1]; male, Wistar): 1 h | Cmin [1]: 1799 ng/mL | AUC(0-t) [2]: 60400 ng·h/mL | Cmax [2]: 4870 ng/mL | Cmin [2]: 1986 ng/mL | Tmax [2]: 2 h
Structure (SMILES): COC(=O)N[C@H](C(=O)N[C@@H](Cc1ccccc1)[C@@H](O)CN(Cc1ccc(-c2ccccn2)cc1)NC(=O)[C@@H](NC(=O)OC)C(C)(C)C)C(C)(C)C [Aqueous atazanavir, atazanavir]

— patent US20210361639A1, “SOLID COMPOSITIONS OF ACTIVES, PROCESSES FOR PREPARING SAME AND USES OF SUCH SOLID COMPOSITIONS” (The University of Liverpool, priority 2018, published 2021)
